# Measurements taken from ChEMBL document CHEMBL5352490, “SAR investigation and optimization of benzimidazole-based derivatives as antimicrobial agents against Gram-negative bacteria” (Eur J Med Chem, 2023).
# Tests used:
# [1] = test system: Escherichia coli; test: Antibacterial activity against Escherichia coli tolC mutant incubated for 24 hrs by broth microdilution method; format: functional
# [2] = test system: Escherichia coli; test: Antibacterial activity against wild type Escherichia coli BW25113 incubated for 24 hrs in absence of colistin by broth microdilution method; format: functional
# [3] = test system: Klebsiella pneumoniae; test: Synergistic antibacterial activity against Klebsiella pneumoniae ATCC 1706 incubated for 24 hrs in presence of colistin by broth microdilution method; format: functional; also: test concentration or dose not given here
# [4] = test system: Pseudomonas aeruginosa; test: Antibacterial activity against Pseudomonas aeruginosa ATCC 9027 incubated for 24 hrs in absence of colistin by broth microdilution method; format: functional
# [5] = test system: Acinetobacter baumannii; test: Antibacterial activity against Acinetobacter baumannii ATCC 19606 incubated for 24 hrs in absence of colistin by broth microdilution method; format: functional
# [6] = test system: Acinetobacter baumannii; test: Synergistic antibacterial activity against Acinetobacter baumannii ATCC 19606 incubated for 24 hrs in presence of colistin by broth microdilution method; format: functional; also: test concentration or dose not given here
# [7] = test system: Pseudomonas aeruginosa; test: Synergistic antibacterial activity against Pseudomonas aeruginosa ATCC 9027 incubated for 24 hrs in presence of colistin by broth microdilution method; format: functional; also: test concentration or dose not given here
# [8] = test system: Escherichia coli; test: Synergistic antibacterial activity against wild type Escherichia coli BW25113 incubated for 24 hrs in presence of colistin by broth microdilution method; format: functional
# [9] = test system: Klebsiella pneumoniae; test: Antibacterial activity against Klebsiella pneumoniae ATCC 1706 incubated for 24 hrs in absence of colistin by broth microdilution method; format: functional
# [10] = test system: Escherichia coli; test: Bacteriostatic effect in Escherichia coli JW55031 assessed as log reduction in bacterial count at 10 times MIC measured at 24 hrs by time kill assay; format: functional
# [11] = test system: Escherichia coli; test: Bacteriostatic effect in Escherichia coli JW55031 assessed as log reduction in bacterial burden at 10 times MIC measured after 24 hrs by time kill assay; format: functional
# [12] = Cytotoxicity against African green monkey Vero cells assessed as reduction in cell viability incubated for 24 hrs by MTS assay; format: toxicity, cell-based; conditions: chlorocebus sabaeus
# [13] = test system: Escherichia coli; test: Bacteriostatic effect in Escherichia coli JW55031 assessed as log reduction in bacterial count at 5 times MIC measured at 24 hrs by time kill assay; format: functional
Compound,MIC [1],also measured
Cc1ccc(Cn2c(-c3cccc(NS(C)(=O)=O)c3)nc3ccc(C#N)cc32)cc1,> 64 µg/mL,
Cc1ccc(Cn2c(-c3cccc(NS(C)(=O)=O)c3)nc3cc(N)ccc32)cc1,> 64 µg/mL,
Cc1ccc(Cn2c(-c3cccc(NS(C)(=O)=O)c3)nc3ccc(N)cc32)cc1,> 64 µg/mL,
COc1ccc(S(=O)(=O)Nc2cccc(-c3nc4ccccc4n3Cc3ccc(C)cc3)c2)cc1OC,4 µg/mL,
Cc1ccc(Cn2c(-c3cccc(NS(C)(=O)=O)c3)nc3cccc(C(=O)O)c32)cc1,> 64 µg/mL,
Cc1ccc(Cn2c(-c3cccc(NS(=O)(=O)c4ccc(Br)cc4)c3)nc3ccccc32)cc1,> 64 µg/mL,
Cc1ccc(Cn2c(-c3cccc(NS(C)(=O)=O)c3)nc3ccc(C(=O)O)cc32)cc1,> 64 µg/mL,
Cc1ccc(Cn2c(-c3cccc(NS(=O)(=O)c4ccc(Cl)cc4)c3)nc3ccccc32)cc1,2 µg/mL,
Cc1ccc(Cn2c(-c3cccc(NS(=O)(=O)c4cccc(Br)c4)c3)nc3ccccc32)cc1,0.5 µg/mL,
Cc1ccc(Cn2c(-c3cccc(NS(=O)(=O)c4ccc(C(C)C)cc4)c3)nc3ccccc32)cc1,> 64 µg/mL,
Cc1ccc(Cn2c(-c3cccc(NS(C)(=O)=O)c3)nc3cc(C(F)(F)F)ccc32)cc1,> 64 µg/mL,
Cc1ccc(Cn2c(-c3cccc(NS(C)(=O)=O)c3)nc3cc(C(=O)O)ccc32)cc1,> 64 µg/mL,
CCOC(=O)c1cccc2nc(-c3cccc(NS(C)(=O)=O)c3)n(Cc3ccc(C)cc3)c12,> 64 µg/mL,
Cc1ccc(Cn2c(-c3cccc(NS(C)(=O)=O)c3)nc3cc(C(=N)NO)ccc32)cc1,> 64 µg/mL,
Cc1ccc(Cn2c(-c3cccc(NS(=O)(=O)c4ccc(F)c(Cl)c4)c3)nc3ccccc32)cc1,2 µg/mL,
Cc1ccc(Cn2c(-c3cccc(NS(=O)(=O)c4ccc(N)cc4)c3)nc3ccccc32)cc1,> 64 µg/mL,
CS(=O)(=O)Nc1cccc(-c2nc3ccccc3n2Cc2ccc(-c3nnn[nH]3)cc2)c1,> 64 µg/mL,
Cc1ccc(Cn2c(-c3cccc(NS(C)(=O)=O)c3)nc3cc(C)ccc32)cc1,> 64 µg/mL,
Cc1ccc(Cn2c(-c3cccc(NS(C)(=O)=O)c3)nc3ccc(C(=N)NO)cc32)cc1,> 64 µg/mL,
CC[C@H]1OC(=O)[C@H](C)[C@@H](O[C@H]2C[C@@](C)(OC)[C@@H](O)[C@H](C)O2)[C@H](C)[C@@H](O[C@@H]2O[C@H](C)C[C@H](N(C)C)[C@H]2O)[C@](C)(O)C[C@@H](C)C(=O)[C@H](C)[C@@H](O)[C@]1(C)O [ERYTHROMYCIN],,MIC [2]: 32 µg/mL; MIC [3]: 4 µg/mL; MIC [4]: > 64 µg/mL; MIC [5]: 8 µg/mL; MIC [6]: 0.25 µg/mL; MIC [7]: 8 µg/mL; MIC [8]: 2 µg/mL; MIC [9]: 64 µg/mL
CCOC(=O)c1ccc2nc(-c3cccc(NS(C)(=O)=O)c3)n(Cc3ccc(C)cc3)c2c1,> 64 µg/mL,
Cc1ccc(Cn2c(-c3cccc(NS(C)(=O)=O)c3)nc3cc(Br)ccc32)cc1,> 64 µg/mL,
Cc1ccc(Cn2c(-c3cccc(NS(=O)(=O)c4ccc5ccccc5c4)c3)nc3ccccc32)cc1,> 64 µg/mL,
Cc1ccc(Cn2c(-c3cccc(NS(=O)(=O)c4cccc([N+](=O)[O-])c4)c3)nc3ccccc32)cc1,2 µg/mL,
Cc1ccc(Cn2c(-c3cccc(-c4nnn[nH]4)c3)nc3ccccc32)cc1,8 µg/mL,
Cc1ccc(Cn2c(-c3cccc(NS(=O)(=O)c4ccccc4[N+](=O)[O-])c3)nc3ccccc32)cc1,1 µg/mL,
Cc1ccc(Cn2c(-c3cccc(C(=N)NO)c3)nc3ccccc32)cc1,> 64 µg/mL,

Compound,MIC [1],also measured
Cc1ccc(Cn2c(-c3cccc(NS(=O)(=O)c4cccc(Cl)c4)c3)nc3ccccc32)cc1,0.125 µg/mL,log(activity) [10]: 2.9; MIC [2]: > 64 µg/mL; MIC [3]: 8 µg/mL; MIC [4]: > 64 µg/mL; MIC [5]: > 64 µg/mL; log(activity) [11]: 0.4; MIC [6]: 4 µg/mL; CC50 at 24 h [12]: > 128 µg/mL; MIC [7]: 16 µg/mL; MIC [8]: 16 µg/mL; log(activity) [13]: 2.54; MIC [9]: > 64 µg/mL
Cc1ccc(Cn2c(-c3cccc(NS(=O)(=O)C4CC4)c3)nc3ccccc32)cc1,1 µg/mL,
Cc1ccc(Cn2c(-c3cccc(NS(=O)(=O)c4ccc(-c5ccccc5)cc4)c3)nc3ccccc32)cc1,> 64 µg/mL,
COc1ccc(S(=O)(=O)Nc2cccc(-c3nc4ccccc4n3Cc3ccc(C)cc3)c2)cc1,4 µg/mL,
Cc1ccc(Cn2c(-c3cccc(NS(=O)(=O)c4ccc(OC(F)(F)F)cc4)c3)nc3ccccc32)cc1,> 64 µg/mL,
CCCCCCCCCC(=O)N[C@@H](Cc1c[nH]c2ccccc12)C(=O)N[C@H](CC(N)=O)C(=O)N[C@@H](CC(=O)O)C(=O)N[C@@H]1C(=O)NCC(=O)N[C@@H](CCCN)C(=O)N[C@@H](CC(=O)O)C(=O)N[C@H](C)C(=O)N[C@@H](CC(=O)O)C(=O)NCC(=O)N[C@H](CO)C(=O)N[C@@H]([C@H](C)CC(=O)O)C(=O)N[C@@H](CC(=O)c2ccccc2N)C(=O)O[C@@H]1C,,MIC [2]: > 128 µg/mL; MIC [3]: > 128 µg/mL; MIC [4]: > 128 µg/mL; MIC [5]: > 128 µg/mL; MIC [6]: > 128 µg/mL; MIC [7]: > 128 µg/mL; MIC [8]: > 128 µg/mL; MIC [9]: > 128 µg/mL
Cc1ccc(Cn2c(-c3cccc(-c4ncon4)c3)nc3ccccc32)cc1,> 64 µg/mL,
Cc1ccc(Cn2c(-c3cccc(NS(=O)(=O)c4cccc(N)c4)c3)nc3ccccc32)cc1,2 µg/mL,
CCOC(=O)Nc1ccc2c(c1)nc(-c1cccc(NS(C)(=O)=O)c1)n2Cc1ccc(C)cc1,> 64 µg/mL,
Cc1ccc(Cn2c(-c3cccc(NS(C)(=O)=O)c3)nc3ccc(Br)cc32)cc1,> 64 µg/mL,
CCOC(=O)Nc1ccc2nc(-c3cccc(NS(C)(=O)=O)c3)n(Cc3ccc(C)cc3)c2c1,> 64 µg/mL,
Cc1ccc(Cn2c(-c3cccc(NS(=O)(=O)c4ccc(C(C)(C)C)cc4)c3)nc3ccccc32)cc1,> 64 µg/mL,
CCOC(=O)c1ccc2c(c1)nc(-c1cccc(NS(C)(=O)=O)c1)n2Cc1ccc(C)cc1,> 64 µg/mL,
Cc1ccc(Cn2c(-c3cccc(NS(=O)(=O)c4ccc([N+](=O)[O-])cc4)c3)nc3ccccc32)cc1,> 64 µg/mL,
Cc1ccc(Cn2c(-c3cccc(NS(C)(=O)=O)c3)nc3ccc(C)cc32)cc1,> 64 µg/mL,
Cc1ccc(Cn2c(-c3cccc(NS(=O)(=O)c4ccc(C)cc4)c3)nc3ccccc32)cc1,2 µg/mL,
Cc1ccc(Cn2c(-c3cccc(NS(C)(=O)=O)c3)nc3cc(C#N)ccc32)cc1,> 64 µg/mL,
Cc1ccc(Cn2c(-c3cccc(NS(C)(=O)=O)c3)nc3ccccc32)cc1,2 µg/mL,
GENTAMICIN,0.25 µg/mL,
Cc1ccc(Cn2c(-c3cccc(C(=N)N)c3)nc3ccccc32)cc1,32 µg/mL,
Cc1ccc(Cn2c(-c3cccc(NS(=O)(=O)c4ccccc4)c3)nc3ccccc32)cc1,1 µg/mL,
Cc1ccc(Cn2c(-c3cccc(NS(=O)(=O)c4ccc(F)c(F)c4)c3)nc3ccccc32)cc1,1 µg/mL,
CC(=O)NC[C@H]1CN(c2ccc(N3CCOCC3)c(F)c2)C(=O)O1 [LINEZOLID],8 µg/mL,
CS(=O)(=O)Nc1cccc(-c2nc3ccccc3n2Cc2ccc(C(=N)NO)cc2)c1,> 64 µg/mL,
CC(=O)Nc1ccc(S(=O)(=O)Nc2cccc(-c3nc4ccccc4n3Cc3ccc(C)cc3)c2)cc1,> 64 µg/mL,
Cc1ccc(Cn2c(-c3cccc(NS(=O)(=O)c4ccc(C(F)(F)F)cc4)c3)nc3ccccc32)cc1,> 64 µg/mL,
CS(=O)(=O)Nc1cccc(-c2nc3ccccc3n2Cc2ccc(-c3ncon3)cc2)c1,> 64 µg/mL,
